Numbers after ± are expanded uncertainties.
What was measured:
[1] = Crystal
[2] = Solid-liquid equilibrium temperature; conditions: Crystal, High pressure microscope

Compound | Normal melting temperature ([1]; DTA) | Normal melting temperature ([1]; High pressure microscope) | Solid-liquid equilibrium temperature ([2]; 100 kPa) | Solid-liquid equilibrium temperature ([2]; 20000 kPa) | Solid-liquid equilibrium temperature ([2]; 40000 kPa) | Solid-liquid equilibrium temperature ([2]; 60000 kPa) | Solid-liquid equilibrium temperature ([2]; 80000 kPa) | Normal melting temperature ([1]; High Pressure microscope)
CCCCCCCCCCCCCCO [1-tetradecanol] | 37.8 ± 1.3 °C | 37.5 ± 1.4 °C | 310.6 ± 0.4 K | 314.2 ± 0.5 K | 319 ± 0.5 K | 323.8 ± 0.5 K | 327.8 ± 0.5 K | –
CCCCCCCCCCCCO [dodecan-1-ol] | 24.7 ± 1.3 °C | – | 296.9 ± 0.4 K | 300.5 ± 0.5 K | 304.6 ± 0.5 K | 308.4 ± 0.5 K | 311.7 ± 0.5 K | 23.8 ± 1.4 °C
CCCCCCCCCCCCCCCCCCO [1-octadecanol] | 58.2 ± 1.3 °C | – | 330.9 ± 0.4 K | 335.8 ± 0.5 K | 340.9 ± 0.5 K | 345.9 ± 0.5 K | 350.6 ± 0.5 K | 57.8 ± 1.4 °C
CCCCCCCCCCCCCCCCO [1-hexadecanol] | 49.7 ± 1.3 °C | 49.1 ± 1.4 °C | 322.2 ± 0.4 K | 327.3 ± 0.5 K | 332.4 ± 0.5 K | 337.6 ± 0.5 K | 342.7 ± 0.5 K | –
